Blank lines part the entries; values can stand above or below the compound they belong to.
Test: Determination of pharmacokinetic parameters in rats
Conditions: for AUC: male, Wistar (RccHan:WIST), rat, po, 2 mg/kg
Protocol: Male Wistar rats (RccHan:WIST) were obtained from Harlan (Venray, The Netherlands) and used for pharmacokinetic experiments after an acclimatization period of at least 7 days. The body weight of the rats was about 250 g at the day of the experiment. Two days prior to dosing, rats were anesthetized for surgery via inhalation of isoflurane (4-5% for induction and 1.5-3% for maintenance) in oxygen. Buprenorphine was dosed as analgesic at 0.03 mg/kg sc half an hour before surgery. Under aseptic conditions, catheters were implanted into jugular vein for dosing and carotid artery to allow for multiple serial blood sampling. […] Compounds were administered intravenously via a 5-minute infusion at doses of 0.5 or 1 mg/kg body weight formulated as solutions in water prepared by pH adjustment or as an aqueous mixed micellar vehicle based on phospholipids and bile acids (mixed micelles). […] Oral formulations were solutions in water prepared by pH adjustment or dispersions prepared by addition of a DMSO stock solution of the compounds to methylcellulose (0.5% w/v) in water. […] Blood samples were centrifuged at 3000 g (10 minutes, 4° C.) and plasma was submitted to LC-MS/MS analysis.

- AUC (plasma): 273 ng·h/mL
SMILES: COc1ncc(-c2cc(C(F)(F)F)ccc2N2CCN(C(=O)Cn3nc(C)cc3C)CC2)cn1 [reference compound 1, 2-(3,5-Dimethyl-pyrazol-1-yl)-1-{4-[2-(2-methoxy-pyrimidin-5-yl)-4-trifluoromethyl-phenyl]piperazin-1-yl}-ethanone]

- AUC (plasma, pH 3.03): 271 ng·h/mL
SMILES: CNc1ncc(-c2cc(C(F)(F)F)ccc2N2CCN(C(=O)Cn3nc(C)cc3C)CC2)cn1 [reference compound 3, 2-(3,5-Dimethyl-pyrazol-1-yl)-1-{4-[2-(2-methylamino-pyrimidin-5-yl)-4-trifluoromethyl-phenyl]-piperazin-1-yl}-ethanone]

- AUC (plasma): 202 ng·h/mL
SMILES: CSc1ncc(-c2cc(C(F)(F)F)ccc2N2CCN(C(=O)Cn3nc(C)cc3C)CC2)cn1 [reference compound 2, 2-(3,5-Dimethyl-pyrazol-1-yl)-1-{4-[2-(2-methylsulfanyl-pyrimidin-5-yl)-4-trifluoromethyl-phenyl]-piperazin-1-yl}-ethanone]

SMILES: Cc1nc(C)n(CC(=O)N2CCN(c3sc(C(F)(F)F)nc3-c3cnc(C(F)(F)F)nc3)C[C@H]2C)n1 [Example 24, 2-(3,5-Dimethyl-[1,2,4]triazol-1-yl)-1-{(R)-2-methyl-4-[2-trifluoromethyl-4-(2-trifluoromethyl-pyrimidin-5-yl)-thiazol-5-yl]-piperazin-1-yl}-ethanone]
- plasma concentration after oral administration (compared to reference compounds disclosed in WO 2010/126811): surprisingly high plasma concentration
- AUC (in vivo, pH 2.1): 14000 ng·h/mL

From patent publication US10259807B2, “1-(piperazin-1-yl)-2-([1,2,4]triazol-1-yl)-ethanone derivatives” (Idorsia Pharmaceuticals Ltd., priority 2013, dated 2019)
